In patent US8574563B2 (Bristol-Myers Squibb Company, priority 2006, dated 2013):

The molecules below were run on HCV 1b-377-neo replicon cells (assay: HCV replicon assay, HCV 1b-377-neo replicon cells (1b FRET)). Settings: Hepatitis C virus, HCV 1b-377-neo replicon cells; HCV 1b genotype; read-out: EC50 range against HCV 1b (Table 2, Range).
Assay type: cell-based, Hepatitis C virus genotype 1b
Summary of the method: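 Compounds tested in HCV genotype 1b-377-neo replicon cells with a FRET read-out. Cells resistant to a reference NS5A inhibitor through a Y2065H NS5A mutation were run alongside wild-type cells.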

Row | SMILES | EC50
1 | COC(=O)N[C@@H](Cc1ccc(O)cc1)C(=O)N1CCC[C@H]1c1ncc(-c2ccc(-c3ccc(-c4cnc([C@@H]5CCCN5C(=O)[C@@H](NC(=O)OC)C(C)C)[nH]4)cc3)cc2)[nH]1 [cj-111, methyl ((1S)-1-(4-hydroxybenzyl)-2-((2S)-2-(5-(4′-(2-((2S)-1-((2S)-2-((methoxycarbonyl)amino)-3-methylbutanoyl)-2-pyrrolidinyl)-1H-imidazol-5-yl)-4-biphenylyl)-1H-imidazol-2-yl)-1-pyrrolidinyl)-2-oxoethyl)carbamate] | 0.001 to 0.999 nM
2 | COC(=O)N[C@H](C(=O)N1[C@H](c2ncc(-c3ccc(-c4ccc(-c5cnc([C@@H]6C[C@@H]7C[C@@H]7N6C(=O)[C@@H](NC(=O)OC)C(C)C)[nH]5)cc4)cc3)[nH]2)C[C@@H]2C[C@@H]21)C(C)C [Example M122, methyl ((1S)-1-(((1S,3S,5S)-3-(5-(4′-(2-((1S,3S,5S)-2-((2S)-2-((methoxycarbonyl)amino)-3-methylbutanoyl)-2-azabicyclo[3.1.0]hex-3-yl)-1H-imidazol-5-yl)-4-biphenylyl)-1H-imidazol-2-yl)-2-azabicyclo[3.1.0]hex-2-yl)carbonyl)-2-methylpropyl)carbamate] | 1 to 99 nM
3 | CCN(CC)[C@@H](C(=O)N1CCC[C@H]1c1ncc(-c2ccc(-c3ccc(-c4cnc([C@@H]5CCCN5C(=O)[C@@H](NC(=O)OC)C5CC5)[nH]4)c(F)c3)cc2)[nH]1)c1ccccc1 [Example D49, methyl ((1S)-1-cyclopropyl-2-((2S)-2-(5-(4′-(2-((2S)-1-((2R)-2-(diethylamino)-2-phenylacetyl)-2-pyrrolidinyl)-1H-imidazol-5-yl)-3-fluoro-4-biphenylyl)-1H-imidazol-2-yl)-1-pyrrolidinyl)-2-oxoethyl)carbamate] | 0.001 to 0.999 nM
4 | C[C@H](C(=O)N1CCC[C@H]1c1ncc(-c2ccc(-c3ccc(-c4cnc([C@@H]5CCCN5C(=O)[C@@H](C)N(C)C)[nH]4)cc3)cc2)[nH]1)N(C)C [Example M8, (2R,2′R)-1,1′-(4,4′-biphenyldiylbis(1H-imidazole-5,2-diyl(2S)-2,1-pyrrolidinediyl))bis(N,N-dimethyl-1-oxo-2-propanamine)] | 1000 to 10000 nM
5 | COC(=O)N[C@@H](C(=O)N1CCC[C@H]1c1ncc(-c2ccc(-c3ccc(-c4cnc([C@@H]5CCCN5C(=O)C(c5noc6ccccc56)N(C)C)[nH]4)cc3)cc2)[nH]1)c1ccccc1 (stereo partly drawn) [Example 84-49, methyl ((1R)-2-((2S)-2-(5-(4′-(2-((2S)-1-(1,2-benzisoxazol-3-yl(dimethylamino)acetyl)-2-pyrrolidinyl)-1H-imidazol-5-yl)-4-biphenylyl)-1H-imidazol-2-yl)-1-pyrrolidinyl)-2-oxo-1-phenylethyl)carbamate] | 0.001 to 0.999 nM
6 | CN(C)[C@@H](C(=O)N1CCC[C@H]1c1ncc(-c2ccc(-c3ccc(-c4cnc([C@@H]5CCCN5C(=O)C5(c6ccccc6)CC5)[nH]4)cc3)cc2)[nH]1)c1ccccc1F [Example 107-34, (1R)-1-(2-fluorophenyl)-N,N-dimethyl-2-oxo-2-((2S)-2-(5-(4′-(2-((2S)-1-((1-phenylcyclopropyl)carbonyl)-2-pyr-rolidinyl)-1H-imidazol-5-yl)-4-biphenylyl)-1H-imidazol-2-yl)-1-pyrrolidinyl)ethanamine] | 0.001 to 0.999 nM
7 | COC(=O)N[C@@H](C(=O)N[C@@H](C)c1ncc(-c2cnc(-c3ccc(-c4cnc([C@@H]5CCCN5C(=O)[C@H](NC(=O)OC)c5ccccc5)[nH]4)cc3)cn2)[nH]1)c1ccccc1 [Example 152j-19, methyl ((1R)-2-((2S)-2-(5-(4-(5-(2-((1S)-1-(((2R)-2-((methoxycarbonyl)amino)-2-phenylacetyl)amino)ethyl)-1H-imidazol-5-yl)-2-pyrazinyl)phenyl)-1H-imidazol-2-yl)-1-pyrrolidinyl)-2-oxo-1-phenylethyl)carbamate] | 0.001 to 0.999 nM
8 | COC(=O)N[C@@H](C(=O)N1CCC[C@H]1c1ncc(-c2ccc(-c3ccc(-c4cnc([C@@H]5CCCN5C(=O)C(c5ccccc5Cl)N(C)C)[nH]4)cc3)cc2)[nH]1)c1ccccc1 (stereo partly drawn) [Example 84-56, methyl ((1R)-2-((2S)-2-(5-(4′-(2-((2S)-1-((2-chlorophenyl)(dimethylamino)acetyl)-2-pyrrolidinyl)-1H-imidazol-5-yl)-4-biphenylyl)-1H-imidazol-2-yl)-1-pyrrolidinyl)-2-oxo-1-phenylethyl)carbamate] | 0.001 to 0.999 nM
9 | COC(=O)N[C@@H](Cc1ccc(OP(=O)(O)OC)cc1)C(=O)N1CCC[C@H]1c1ncc(-c2ccc(-c3ccc(-c4cnc([C@@H]5CCCN5C(=O)[C@@H](NC(=O)OC)[C@@H](C)OC)[nH]4)cc3)cc2)[nH]1 [cj-92, methyl ((1S,2R)-1-(((2S)-2-(5-(4′-(2-((2S)-1-(O-(hydroxy(methoxy)phosphoryl)-N-(methoxycarbonyl)-L-tyrosyl)-2-pyrrolidinyl)-1H-imidazol-5-yl)-4-biphenylyl)-1H-imidazol-2-yl)-1-pyrrolidinyl)carbonyl)-2-methoxypropyl)carbamate] | 1 to 99 nM
10 | CN(C)[C@@H](C(=O)N1CCC[C@H]1c1ncc(-c2ccc(-c3ccc(-c4cnc([C@@H]5CCCN5C(=O)[C@H]5CC[C@@H](NC(=O)OC(C)(C)C)CC5)[nH]4)cc3)cc2)[nH]1)c1ccccc1 [Example 94-33, tert-butyl (cis-4-(((2S)-2-(5-(4′-(2-((2S)-1-((2R)-2-(dimethylamino)-2-phenylacetyl)-2-pyrrolidinyl)-1H-imidazol-5-yl)-4-biphenylyl)-1H-imidazol-2-yl)-1-pyrrolidinyl)carbonyl)cyclohexyl)carbamate] | 1 to 99 nM
11 | COC(=O)N[C@H](C(=O)N1CCC[C@H]1c1ncc(-c2ccc(-c3ccc(-c4cnc([C@@H]5CCCN5C(=O)[C@@H](Nc5ccncn5)C(C)C)[nH]4)cc3)cc2)[nH]1)C(C)C [cj-15d, methyl ((1S)-2-methyl-1-(((2S)-2-(5-(4′-(2-((2S)-1-(N-4-pyrimidinyl-L-valyl)-2-pyrrolidinyl)-1H-imidazol-5-yl)-4-biphenylyl)-1H-imidazol-2-yl)-1-pyrrolidinyl)carbonyl)propyl)carbamate] | 0.001 to 0.999 nM
12 | COC(=O)N[C@H](C(=O)N1CCC[C@H]1c1ncc(-c2ccc(-c3ccc(-c4cnc([C@@H]5CCCN5C(=O)[C@@H](NC(=O)OC)C(C)OC)[nH]4)c(F)c3)cc2F)[nH]1)C(C)C (stereo in doubt) [Example D56, methyl ((1S,2R)-1-(((2S)-2-(5-(3,3′-difluoro-4′-(2-((2S)-1-(N-(methoxycarbonyl)-L-valyl)-2-pyrrolidinyl)-1H-imidazol-5-yl)-4-biphenylyl)-1H-imidazol-2-yl)-1-pyrrolidinyl)carbonyl)-2-methoxypropyl) carbamate] | 0.001 to 0.999 nM
13 | COC(=O)N[C@H](C(=O)N1CCC[C@H]1c1ncc(-c2ccc(-c3ccc(-c4cnc([C@@H]5CC(F)(F)CN5C(=O)[C@@H](NC(=O)OC)C(C)C)[nH]4)cc3)cc2)[nH]1)C(C)C [OL-12, methyl ((1S)-1-(((2S)-2-(4-(4′-(2-((2S)-4,4-difluoro-1-((2S)-2-((methoxycarbonyl)amino)-3-methylbutanoyl)-2-pyrrolidinyl)-1H-imidazol-4-yl)-4-biphenylyl)-1H-imidazol-2-yl)-1-pyrrolidinyl)carbonyl)-2-methylpropyl)carbamate] | 0.001 to 0.999 nM
14 | CCN(CC)[C@@H](C(=O)N1CCC[C@H]1c1ncc(-c2ccc(-c3ccc(-c4cnc([C@@H]5CCCN5C(=O)[C@@H](c5ccccc5)N5CCCC5)[nH]4)cc3)cc2)[nH]1)c1ccccc1 [Example 99, (1R)-N,N-diethyl-2-oxo-1-phenyl-2-((2S)-2-(5-(4′-(2-((2S)-1-((2R)-2-phenyl-2-(1-pyrrolidinyl)acetyl)-2-pyrrolidinyl)-1H-imidazol-5-yl)-4-biphenylyl)-1H-imidazol-2-yl)-1-pyrrolidinyl)ethanamine] | 0.001 to 0.999 nM
15 | COC(=O)N[C@@H](C(=O)N1CCC[C@H]1c1ncc(-c2ccc(-c3ccc(-c4cnc([C@@H]5CCCN5C(=O)c5ccccc5F)[nH]4)cc3)cc2)[nH]1)c1ccccc1 [Example 84-40, methyl ((1R)-2-((2S)-2-(5-(4′-(2-((2S)-1-(2-fluorobenzoyl)-2-pyrrolidinyl)-1H-imidazol-5-yl)-4-biphenylyl)-1H-imidazol-2-yl)-1-pyrrolidinyl)-2-oxo-1-phenylethyl)carbamate] | 0.001 to 0.999 nM
16 | COC(=O)N[C@H](C(=O)N1CC(F)(F)C[C@H]1c1nc(-c2ccc(-c3ccc(-c4cnc([C@@H]5CCCN5C(=O)[C@@H](NC(=O)OC)C(C)C)[nH]4)c(F)c3)cc2)c[nH]1)C(C)C [Example J14e, methyl ((1S)-1-(((2S)-4,4-difluoro-2-(4-(3′-fluoro-4′-(2-((2S)-1-((2S)-2-((methoxycarbonyl)amino)-3-methylbutanoyl)-2-pyrrolidinyl)-1H-imidazol-4-yl)-4-biphenylyl)-1H-imidazol-2-yl)-1-pyrrolidinyl)carbonyl)-2-methylpropyl)carbamate] | 0.001 to 0.999 nM
17 | O=C(O)c1nc([C@@H]2CCCN2C(=O)[C@@H](c2ccccc2)N2CCCCC2)[nH]c1-c1ccc(-c2ccc(-c3cnc([C@@H]4CCCN4C(=O)[C@@H](c4ccccc4)N4CCCCC4)[nH]3)cc2)cc1 [Example J31, 2-((2S)-1-((2R)-2-phenyl-2-(1-piperidinyl)acetyl)-2-pyrrolidinyl)-5-(4′-(2-((2S)-1-((2R)-2-phenyl-2-(1-piperidinyl)acetyl)-2-pyrrolidinyl)-1H-imidazol-5-yl)-4-biphenylyl)-1H-imidazole-4-carboxylic acid] | 0.001 to 0.999 nM
18 | O=C(C(c1ccccc1)N1CCC(O)CC1)N1CCC[C@H]1c1ncc(-c2ccc(-c3ccc(-c4cnc([C@@H]5CCCN5C(=O)[C@@H](c5ccccc5)N5CCCC5)[nH]4)cc3)cc2)[nH]1 (stereo partly drawn) [Example 97, 1-(2-oxo-1-phenyl-2-((2S)-2-(5-(4′-(2-((2S)-1-((2R)-2-phenyl-2-(1-pyrrolidinyl)acetyl)-2-pyrrolidinyl)-1H-imidazol-5-yl)-4-biphenylyl)-1H-imidazol-2-yl)-1-pyrrolidinyl)ethyl)-4-piperidinol] | 0.001 to 0.999 nM
19 | COC(=O)N[C@@H](C)C(=O)N1CCC[C@H]1c1ncc(-c2ccc(-c3ccc(-c4cnc([C@@H]5CCCN5C(=O)[C@@H]5CC(=O)N5)[nH]4)cc3)cc2)[nH]1 [cj-48] | 100 to 999 nM
